Structures are written as SMILES. *1 amine or outer side, *2 acyl side, *3 side chain or, on linkers, in order; H or OH if unused. Where a SMILES comes first, the peptide text is derived from it. Bridges are numbered along the chain shown (N, C = ends). [ ]: non-standard residue; d: D form. The star is where a group is joined. X5 = O=C(NC(=O)[*:2])C(N[*:1])c1cc(Cl)c(O)c(Cl)c1; X3 = NCCCCN(C(=O)C(N[*:1])c1ccc(O)cc1)C(=O)[*:2]; X4 = NC1=NC(CC(N[*:1])C(=O)[*:2])CN1; Hpg = N[CH](C(=O)O)c1ccc(O)cc1; X2 = CCC(C)CCCC/C=C/C=C/C(=O)*; Cit = NC(=O)NCCC[CH](N)C(=O)O

This data set is described as follows: GHS categories as the set defines them, by LD50: 1 up to 5, 2 up to 50, 3 up to 300, 4 up to 2000, 5 above 2000 mg/kg. As to conditions: rat; in vivo; po.
Compound `CCC(C)(CC)c1ccc(NC(=O)c2c(OC)cccc2OC)nn1` showed a GHS category of 4.

For the compound `O=[N+]([O-])c1cccc(C=NOCc2cccc([N+](=O)[O-])c2)c1`, the GHS category is 4.

On to `CCC(C)CCCC/C=C/C=C/C(=O)NC(CC(=O)O)C(=O)NC1C(=O)NC(c2ccc(O)cc2)C(=O)N(CCCCN)C(=O)NC(C(C)O)C(=O)NC(c2ccc(O)cc2)C(=O)NC(c2ccc(O)cc2)C(=O)NC(C(C)O)C(=O)NC(CCCNC(N)=O)C(=O)NC(CC2CNC(N)=N2)C(=O)NC(c2ccc(O)cc2)C(=O)NC(CO)C(=O)NC(c2cc(Cl)c(O)c(Cl)c2)C(=O)NC(=O)NC(CC2CNC(N)=N2)C(=O)NC(C)C(=O)NC(c2ccc(O)cc2)C(=O)OC1C` (centres undefined) (X2-DT[X3]T[Hpg][Hpg]T[Cit][X4][Hpg]S[X5][X4]A[Hpg]; ester 2-C; configuration not given here), for which the GHS category was 5.

With `OCC1C(CO)C2(Cl)C(Cl)=C(Cl)C1(Cl)C2(Cl)Cl` (centres undefined), the GHS category is 5.

On to `CCC1COC(Cn2cncn2)(c2cc3cc(Cl)ccc3o2)O1` (centres undefined), for which the GHS category is recorded as 4.

Compound `C/C=C(\C)C(=O)OC(C)C` displayed a GHS category of 5.

`CCCCCCCC/C=C\CCCCCCCCCCCC(=O)O` registered a GHS category of 5.

`O=S(=O)(O)c1cc(O)c2c(N=Nc3ccc(Nc4ccccc4)c4c(S(=O)(=O)O)cccc34)cc(S(=O)(=O)O)cc2c1`: the GHS category is 5.

As for `CC(=O)OCC(=O)[C@@]12OC3(CCCC3)O[C@@H]1C[C@H]1[C@@H]3CCC4=CC(=O)C=C[C@]4(C)[C@@]3(F)[C@@H](O)C[C@@]12C`, the GHS category is on record as 5.

On to `CCCCCCCCCCCC(=O)N(C)CC(=O)O`, for which the GHS category was 5.

For `CCCCCCCCCCCCCCCCCC(=O)OCCOC(=O)CCCCCCCCCCCCCCCCC`, the GHS category came out at 5.

For `COc1ccc2c(c1)CCN(c1ccccc1)C2c1ccc(F)cc1` (centres undefined), the GHS category was 4.

Compound `Nc1ccc(F)cc1-c1ccc(Cl)c(Cl)c1` showed a GHS category of 5.

The compound `CO[C@H]1C[C@H](O[C@H]2[C@H](C)[C@@H](O[C@@H]3O[C@H](C)C[C@H](N(C)C)[C@H]3O)[C@H](C)C[C@@]3(CO3)C(=O)[C@H](C)[C@@H](O)[C@@H](C)[C@@H](C)OC(=O)[C@@H]2C)O[C@@H](C)[C@@H]1O` displayed a GHS category of 5.

`CC(SC(=O)c1cccs1)C(=O)NC1CCSC1=O` (centres undefined) displayed a GHS category of 5.

On to `CC(C)CCOC(=O)C=Cc1ccccc1`, for which the GHS category was found to be 5.

For `CCC(C(=O)NC(N)=O)c1ccccc1` (centres undefined), the GHS category was determined as 5.

`CCC(=O)C=Cc1ccc(OC)cc1` returned a GHS category of 5.

`CC[C@H]1OC(=O)[C@H](C)[C@@H](O[C@H]2C[C@@](C)(OC)[C@@H](O)[C@H](C)O2)[C@H](C)[C@@H](O[C@@H]2O[C@H](C)C[C@H](N(C)C)[C@H]2O)[C@](C)(O)C[C@@H](C)CN(C)[C@H](C)[C@@H](O)[C@]1(C)O` registered a GHS category of 5.

As for `C=C(C)c1cccc(C(=C)C)c1`, the GHS category is on record as 5.

Compound `CCO[C@@H]1O[C@H](C(COCc2ccccc2)OCc2ccccc2)[C@H](OCc2ccccc2)[C@H]1O` (some centres undefined) returned a GHS category of 5.

With `N#Cc1ccc(N(c2ccc(C#N)cc2)c2ccc3c(c2)C(=O)N(Cc2cccnc2)C3=O)cc1`, the GHS category came to 5.

Compound `O=C(O)CCC(=O)OC1N=C(c2ccccc2)c2cc(Cl)ccc2NC1=O` (centres undefined) yielded a GHS category of 5.

`CS(C)(=O)=O`: the GHS category is given as 5.

As for `CC1(C(=O)O)CCCCC1`, the GHS category stood at 4.

Compound `CCCCCCCCCCCCCO[PH](=O)OCCCCCCCCCCCCC` had a GHS category of 5.

Consider `COc1cc(OC)nc(N=C(O)NS(=O)(=O)N(C)S(C)(=O)=O)n1`, for which the GHS category was found to be 5.

Take `CCC1(CO)COCOC1`: the GHS category was 5.

`CCCCc1c(Cc2ccc(-c3ccccc3-c3nn[nH]n3)cc2)c(=O)nc2nc[nH]n12` came in with a GHS category of 4.

Turning to `CN1CC(c2ccno2)CC2c3cccc4[nH]cc(c34)CC21` (centres undefined), the GHS category came out at 4.

Turning to `COc1cccc(N(C)C(=S)Oc2ccc3c(c2)CCCC3)n1`, the GHS category is 5.

In the case of `OCC(CBr)(CBr)CBr`, the GHS category was 5.

Compound `Cc1ccc(N=Nc2c(O)c(C(=O)O)cc3ccccc23)c(S(=O)(=O)O)c1` gave a GHS category of 5.

In turn, `C[C@]1(Cn2ccnn2)[C@H](C(=O)O)N2C(=O)C[C@H]2S1(=O)=O` registered a GHS category of 5.

As for `O=C1c2ccccc2CN2C(=O)c3ccccc3CN12`, the GHS category worked out at 5.

The compound `CC(C)OC(=O)N[C@H](C(=O)N[C@H](C)c1nc2ccc(F)cc2s1)C(C)C` came in with a GHS category of 5.

For `Cc1cc(S(=O)(=O)O)c(/N=N/c2c(O)c(C(=O)O)cc3ccccc23)cc1Cl`, the GHS category came to 5.

Compound `CCn1cc(C(=O)O)c(=O)c2cc(F)c(N3CCNCC3)cc21` showed a GHS category of 5.

Take `CC/C(=C(/c1ccc(OCCN(C)C)cc1)c1cccc(O)c1)c1ccccc1`: the GHS category is on record as 5.

As to `CCOP(=S)(OCC)SSSP(=S)(OCC)OCC`, the GHS category is on record as 5.

As to `NC(=O)c1cn(CCO)nc1[N+](=O)[O-]`, the GHS category is reported as 5.

For the compound `CC(CO)COC1CC2CCC1(C)C2(C)C` (centres undefined), the GHS category was found to be 5.

`FC(F)(F)c1cccc(C(F)(F)F)c1`: the GHS category was determined as 5.

With `Clc1ccccc1-c1nnc(-c2ccccc2Cl)nn1`, the GHS category is 5.

Regarding `CC1=CC(=NNc2ccc(N)cc2)C=C(C)C1=O`, the GHS category was 5.

Regarding `CC(C)=CCN(CC=C(C)C)CCC(C)(C#N)c1cccc2ccccc12` (centres undefined), the GHS category worked out at 4.

For `O=S(=O)(O)c1ccc(Cl)cc1`, the GHS category was determined as 4.

`CN1C(C(=O)Nc2ccc(O)cn2)=C(O)c2sccc2S1(=O)=O` had a GHS category of 2.

The compound `CCOC(=O)C(=O)Nc1cc(OCCOCc2ccccc2)nc(C)n1` had a GHS category of 4.

`CO[C@H]1C=CO[C@@]2(C)Oc3c(C)c(O)c4c(O)c(c5c(nc6cc(C)ccn65)c4c3C2=O)NC(=O)C(C)=CC=C[C@H](C)[C@H](O)[C@@H](C)[C@@H](O)[C@@H](C)[C@H](OC(C)=O)[C@@H]1C` registered a GHS category of 5.

`CC(C)Oc1cccc(NC(=O)c2ccccc2C(F)(F)F)c1`: the GHS category stood at 5.

`OCC1CN2CCN1CC2` (centres undefined) displayed a GHS category of 5.

With `CCCCCCCCOc1ccc(-c2ccc(C#N)cc2)cc1`, the GHS category was 5.

Compound `CCCOC(=O)Nc1nc(N2CC=CCC2)cc2nc(=O)on12` had a GHS category of 5.

As to `CCCCCCCCCCCCCCCCCC(=O)OC(CO)COC(=O)CCCCCCCCCCCCCCC` (centres undefined), the GHS category is listed as 5.

As to `CO[C@@]1(NC(=O)C(C(=O)O)c2ccc(O)cc2)C(=O)N2C(C(=O)O)=C(CSc3nnnn3C)CO[C@@H]21` (some centres undefined), the GHS category was 5.

In turn, `NCCCN(CCO)CCO` came in with a GHS category of 5.

`C` returned a GHS category of 5.

`CCCCCNCC(N)=O` had a GHS category of 5.

`OCCN1CNC(=S)NC1` registered a GHS category of 5.

For the compound `CC(=O)CSc1nnnn1C`, the GHS category is 4.

`CC(=O)C[N+]1(CC(N)=O)C(=O)Sc2ccc(Cl)cc21` (centres undefined) came in with a GHS category of 5.

`O=C(Nc1ccc(NC(=O)c2cc3ccccc3c(N=Nc3cc(Cl)ccc3Cl)c2O)c(Cl)c1)c1cc2ccccc2c(N=Nc2cc(Cl)ccc2Cl)c1O` gave a GHS category of 5.

The compound `CCCCCCCOc1ccc(-c2ccc(C#N)cc2)cc1` had a GHS category of 5.

Source of the values: the CATMoS acute toxicity set (Mansouri et al. 2021).
